Laboratory results from the NIST ThermoML archive (doi:10.1021/je034102r).

Experiment: molar heat capacity at constant pressure
Settings: 101.33 kPa, Liquid, heat bridge-scanning calorimeter

CCCCn1cc[n+](C)c1.F[P-](F)(F)(F)(F)F [1-butyl-3-methylimidazolium hexafluorophosphate]
Settings | molar heat capacity at constant pressure [J/K/mol]
326.94 K | 426.56
327.06 K | 426.56
327.19 K | 426.56
327.31 K | 426.56
327.44 K | 426.84
327.72 K | 427.13
327.85 K | 427.13
327.98 K | 427.13
328.1 K | 427.13
328.23 K | 427.41
328.35 K | 427.41
328.48 K | 427.41
328.61 K | 427.41
328.73 K | 427.41
328.99 K | 427.69
329.11 K | 427.69
329.24 K | 427.98
329.37 K | 427.69
329.49 K | 427.98
329.62 K | 427.98
329.74 K | 428.26
329.87 K | 428.26
330 K | 428.26
330.12 K | 427.98
330.25 K | 428.26
330.52 K | 428.55
330.65 K | 428.55
330.77 K | 428.55
330.9 K | 428.55
331.03 K | 428.55
331.15 K | 428.55
331.28 K | 428.83
331.4 K | 429.12
331.53 K | 429.12
331.79 K | 429.12
331.91 K | 429.12
332.04 K | 429.12
332.16 K | 429.12
332.29 K | 429.12
332.42 K | 429.4
332.54 K | 429.4
332.67 K | 429.4
332.79 K | 429.4
332.92 K | 429.4
333.05 K | 429.4
333.32 K | 429.68
333.45 K | 429.68
333.58 K | 429.97
333.71 K | 429.97
333.83 K | 429.97
333.96 K | 429.97
334.08 K | 429.97
334.21 K | 429.97
334.34 K | 429.97
334.59 K | 430.25
334.72 K | 430.25
334.84 K | 430.25
334.97 K | 430.25
335.1 K | 430.54
335.22 K | 430.54
335.35 K | 430.54
335.47 K | 430.54
335.6 K | 430.82
335.73 K | 430.82
335.85 K | 430.82
336.12 K | 431.1
336.25 K | 430.82
336.38 K | 430.82
336.5 K | 431.1
336.63 K | 431.1
336.75 K | 431.1
336.88 K | 431.39
337.01 K | 431.39
337.13 K | 431.39
337.39 K | 431.39
337.51 K | 431.39
337.64 K | 431.39
337.76 K | 431.39
337.89 K | 431.67
338.02 K | 431.67
338.14 K | 431.96
338.27 K | 431.96
338.39 K | 431.96
338.52 K | 432.24
338.64 K | 432.24
338.91 K | 432.24
339.04 K | 432.53
339.17 K | 432.53
339.29 K | 432.53
339.43 K | 432.81
339.55 K | 432.81
339.68 K | 432.81
339.8 K | 432.81
339.93 K | 433.09
340.19 K | 433.09
